Drawing on patent US9090600B2, “Fungicidal 4-substituted-3-{phenyl[(heterocyclylmethoxy)imino]methyl}-1,2,4-oxadizol-5(4H)-one derivatives” (BAYER INTELLECTUAL PROPERTY GMBH, priority 2011, dated 2015), this text covers LogP for 69 compounds.

Marks after values point to notes of the source that are not given here.

For the data set the following is noted: pH 2.7.

The term LogP denotes a log measure of how a compound divides between an organic and an aqueous phase. Consider `Cn1c(/C(=N\OCc2cccc(NC(=O)OCC(Cl)Cl)n2)c2ccccc2)noc1=O` [compound 461], for which the LogP was 3.74 [a].

As to `CC(C)[C@@H]1CC[C@@H](C)C[C@H]1OC(=O)Nc1cccc(CO/N=C(/c2ccccc2)c2noc(=O)n2C)n1` [compound 462], the lipophilicity (LogP) was 5.9 [a].

Regarding `CCCCCCCCOC(=O)Nc1cccc(CO/N=C(/c2ccccc2)c2noc(=O)n2C)n1` [compound 465], the LogP is 5.65 [a].

With `C=C(C)OC(=O)Nc1cccc(CO/N=C(/c2ccccc2)c2noc(=O)n2C)n1` [compound 466], the LogP is 3.37 [a].

For the compound `CCCc1ccc(OC(=O)Nc2cccc(CO/N=C(/c3ccccc3)c3noc(=O)n3C)n2)cc1` [compound 467], the LogP is 4.74 [a].

Take `Cn1c(/C(=N\OCc2cccc(NC(=O)OCC#Cc3ccccc3)n2)c2ccccc2)noc1=O` [compound 468]: the LogP is 4.25 [a].

For `CCCc1cccc(OC(=O)Nc2cccc(CO/N=C(/c3ccccc3)c3noc(=O)n3C)n2)c1` [compound 469], the LogP was 4.72 [a].

Take `Cc1cc(C)c(OC(=O)Nc2cccc(CO/N=C(/c3ccccc3)c3noc(=O)n3C)n2)c(C)c1` [compound 470]: the LogP is 4.56 [a].

For `Cn1c(/C(=N\OCc2cccc(NC(=O)OCCc3ccccn3)n2)c2ccccc2)noc1=O` [compound 471], the LogP was 2.07 [a].

Take `CN(C)CCCOC(=O)Nc1cccc(CO/N=C(/c2ccccc2)c2noc(=O)n2C)n1` [compound 472]: the lipophilicity (LogP) is 1.88 [a].

For `Cn1c(/C(=N\OCc2cccc(NC(=O)OCC3CC3)n2)c2ccccc2)noc1=O` [compound 473], the LogP is 3.64 [a].

On to `Cn1c(/C(=N\OCc2cccc(NC(=O)OCc3ccc([N+](=O)[O-])cc3)n2)c2ccccc2)noc1=O` [compound 476], for which the LogP was 3.83 [a].

For the compound `Cn1c(/C(=N\OCc2cccc(NC(=O)OCc3cccc(C#N)c3)n2)c2ccccc2)noc1=O` [compound 477], the LogP was 3.65 [a].

With `CCc1ccc(OC(=O)Nc2cccc(CO/N=C(/c3ccccc3)c3noc(=O)n3C)n2)cc1` [compound 478], the lipophilicity (LogP) was 4.39 [a].

With `C=COC(=O)Nc1cccc(CO/N=C(/c2ccccc2)c2noc(=O)n2C)n1` [compound 482], the LogP was 3.33 [a].

In the case of `Cn1c(C(=NOCc2cccc(NC(=O)OCC3CCCO3)n2)c2ccccc2)noc1=O` (stereo not drawn) [compound 483], the LogP was 3.11 [a].

Turning to `C#CCCCCOC(=O)Nc1cccc(CON=C(c2ccccc2)c2noc(=O)n2C)n1` [compound 484], the LogP is 3.78 [a].

Take `CC(OC(=O)Nc1cccc(CON=C(c2ccccc2)c2noc(=O)n2C)n1)C1CCCCC1` (stereo not drawn) [compound 485]: the lipophilicity (LogP) is 5.25 [a].

As to `Cn1c(C(=NOCc2cccc(NC(=O)OCCCCCCCl)n2)c2ccccc2)noc1=O` [compound 486], the lipophilicity (LogP) is 4.49 [a].

`Cc1ccccc1COC(=O)Nc1cccc(CON=C(c2ccccc2)c2noc(=O)n2C)n1` [compound 487]: the LogP was 4.29 [a].

As for `CCC=CCCCOC(=O)Nc1cccc(CON=C(c2ccccc2)c2noc(=O)n2C)n1` [compound 488], the lipophilicity (LogP) is 4.78 [a].

For `COC(=O)C(C)(C)COC(=O)Nc1cccc(CON=C(c2ccccc2)c2noc(=O)n2C)n1` [compound 489], the LogP was 3.65 [a].

For `C=CCOCCOC(=O)Nc1cccc(CON=C(c2ccccc2)c2noc(=O)n2C)n1` [compound 490], the log partition coefficient (LogP) was 3.37 [a].

`COC(=O)C(C)COC(=O)Nc1cccc(CON=C(c2ccccc2)c2noc(=O)n2C)n1` (stereo not drawn) [compound 491]: the LogP was 3.33 [a].

Take `CC(C)c1ccc(OC(=O)Nc2cccc(CON=C(c3ccccc3)c3noc(=O)n3C)n2)cc1` [compound 492]: the LogP is 4.67 [a].

`Cc1cccc(C)c1OC(=O)Nc1cccc(CON=C(c2ccccc2)c2noc(=O)n2C)n1` [compound 494]: the LogP is 4.2 [a].

In the case of `Cn1c(C(=NOCc2cccc(NC(=O)OCc3ccccc3F)n2)c2ccccc2)noc1=O` [compound 495], the lipophilicity (LogP) was 4.01 [a].

For `Cn1c(C(=NOCc2cccc(NC(=O)OCCOC3CCCCC3)n2)c2ccccc2)noc1=O` [compound 496], the LogP is 4.31 [a].

Turning to `Cn1c(C(=NOCc2cccc(NC(=O)OCCCc3cccnc3)n2)c2ccccc2)noc1=O` [compound 497], the LogP was 2.11 [a].

Consider `Cc1cc(C)cc(COC(=O)Nc2cccc(CON=C(c3ccccc3)c3noc(=O)n3C)n2)c1` [compound 498], for which the LogP is 4.68 [a].

Turning to `Cn1c(C(=NOCc2cccc(NC(=O)OCC(F)(F)F)n2)c2ccccc2)noc1=O` [compound 500], the LogP was 3.57 [a].

Turning to `Cn1c(C(=NOCc2cccc(NC(=O)OCc3cccc(F)c3)n2)c2ccccc2)noc1=O` [compound 501], the lipophilicity (LogP) was 4.01 [a].

On to `CC(OC(=O)Nc1cccc(CON=C(c2ccccc2)c2noc(=O)n2C)n1)C1CCCC1` (stereo not drawn) [compound 502], for which the LogP was 4.82 [a].

As to `CCC#CCOC(=O)Nc1cccc(CON=C(c2ccccc2)c2noc(=O)n2C)n1` [compound 503], the LogP was 3.78 [a].

Turning to `C=C(C)COC(=O)Nc1cccc(CON=C(c2ccccc2)c2noc(=O)n2C)n1` [compound 504], the log partition coefficient (LogP) was 3.73 [a].

Take `CC=CCCCOC(=O)Nc1cccc(CON=C(c2ccccc2)c2noc(=O)n2C)n1` [compound 505]: the LogP is 4.39 [a].

In the case of `CC(C)CCCCOC(=O)Nc1cccc(CON=C(c2ccccc2)c2noc(=O)n2C)n1` [compound 506], the log partition coefficient (LogP) is 5.17 [a].

For the compound `CCCC=CCOC(=O)Nc1cccc(CON=C(c2ccccc2)c2noc(=O)n2C)n1` [compound 507], the lipophilicity (LogP) is 4.56 [a].

For the compound `CC=CCCCOC(=O)Nc1cccc(CON=C(c2ccccc2)c2noc(=O)n2C)n1` [compound 509], the log partition coefficient (LogP) was 4.44 [a].

Turning to `CCCC#CCCOC(=O)Nc1cccc(CON=C(c2ccccc2)c2noc(=O)n2C)n1` [compound 511], the lipophilicity (LogP) was 4.31 [a].

`CC(=O)OCCCCOC(=O)Nc1cccc(CO/N=C(/c2ccccc2)c2noc(=O)n2C)n1` [compound 514]: the LogP was 3.35 [a].

Regarding `C=CC(=O)OCCOC(=O)Nc1cccc(CO/N=C(/c2ccccc2)c2noc(=O)n2C)n1` [compound 515], the LogP was 3.21 [a].

For `CSCCCOC(=O)Nc1cccc(CO/N=C(/c2ccccc2)c2noc(=O)n2C)n1` [compound 516], the log partition coefficient (LogP) was 3.68 [a].

On to `Cn1c(/C(=N\OCc2cccc(NC(=O)OCCCl)n2)c2ccccc2)noc1=O` [compound 518], for which the LogP was 3.29 [a].

As for `CCC1(COC(=O)Nc2cccc(CO/N=C(/c3ccccc3)c3noc(=O)n3C)n2)COC1` [compound 520], the lipophilicity (LogP) was 3.27 [a].

On to `Cc1ccccc1OC(=O)Nc1cccc(CO/N=C(/c2ccccc2)c2noc(=O)n2C)n1` [compound 521], for which the lipophilicity (LogP) was 3.96 [a].

Consider `CC/C=C/CCOC(=O)Nc1cccc(CO/N=C(/c2ccccc2)c2noc(=O)n2C)n1` [compound 522], for which the lipophilicity (LogP) is 4.46 [a].

Regarding `Cn1c(/C(=N\OCc2cccc(NC(=O)OCCCC3CCCCC3)n2)c2ccccc2)noc1=O` [compound 523], the LogP was 5.71 [a].

`Cn1c(/C(=N\OCc2cccc(NC(=O)OCC3CCOC3)n2)c2ccccc2)noc1=O` (stereo not drawn) [compound 524]: the LogP was 2.98 [a].

Turning to `Cn1c(/C(=N\OCc2cccc(NC(=O)OCC3CC=CCC3)n2)c2ccccc2)noc1=O` (stereo not drawn) [compound 526], the LogP was 4.51 [a].

Regarding `Cn1c(/C(=N\OCc2cccc(NC(=O)OCc3cccs3)n2)c2ccccc2)noc1=O` [compound 527], the log partition coefficient (LogP) is 3.83 [a].

As to `Cn1c(/C(=N\OCc2cccc(NC(=O)OCc3ccc(F)cc3)n2)c2ccccc2)noc1=O` [compound 528], the LogP was 3.99 [a].

As to `Cn1c(/C(=N\OCc2cccc(NC(=O)OCC3COCO3)n2)c2ccccc2)noc1=O` (stereo not drawn) [compound 529], the lipophilicity (LogP) was 2.73 [a].

With `CCCOCCOC(=O)Nc1cccc(CO/N=C(/c2ccccc2)c2noc(=O)n2C)n1` [compound 531], the LogP is 3.57 [a].

Turning to `COc1ccc(OC(=O)Nc2cccc(CO/N=C(/c3ccccc3)c3noc(=O)n3C)n2)cc1` [compound 532], the LogP is 3.69 [a].

For the compound `Cn1c(/C(=N\OCc2cccc(NC(=O)OCCC3CCCC3)n2)c2ccccc2)noc1=O` [compound 533], the log partition coefficient (LogP) was 4.9 [a].

Regarding `CCC/C=C\COC(=O)Nc1cccc(CO/N=C(/c2ccccc2)c2noc(=O)n2C)n1` [compound 535], the LogP was 4.53 [a].

Turning to `Cn1c(/C(=N\OCc2cccc(NC(=O)OCC(Cl)(Cl)Cl)n2)c2ccccc2)noc1=O` [compound 536], the log partition coefficient (LogP) is 4.15 [a].

`Cn1c(/C(=N\OCc2cccc(NC(=O)OCCC3CCOCC3)n2)c2ccccc2)noc1=O` [compound 537]: the log partition coefficient (LogP) was 3.44 [a].

Turning to `CC/C=C\CCOC(=O)Nc1cccc(CO/N=C(/c2ccccc2)c2noc(=O)n2C)n1` [compound 540], the LogP was 4.44 [a].

Regarding `Cn1c(/C(=N\OCc2cccc(NC(=O)OCC3CCCCC3)n2)c2ccccc2)noc1=O` [compound 541], the LogP was 4.88 [a].

For the compound `Cn1c(/C(=N\OCc2cccc(NC(=O)OCC[Si](C)(C)C)n2)c2ccccc2)noc1=O` [compound 542], the log partition coefficient (LogP) was 4.88 [a].

For the compound `Cn1c(/C(=N\OCc2cccc(NC(=O)OCCCCl)n2)c2ccccc2)noc1=O` [compound 544], the LogP is 3.6 [a].

As for `CC(C)OCCOC(=O)Nc1cccc(CO/N=C(/c2ccccc2)c2noc(=O)n2C)n1` [compound 545], the LogP is 3.44 [a].

For `Cc1ccc(COC(=O)Nc2cccc(CO/N=C(/c3ccccc3)c3noc(=O)n3C)n2)cc1` [compound 546], the lipophilicity (LogP) is 4.31 [a].

Regarding `COC(=O)Nc1cccc(CO/N=C(/c2ccccc2)c2noc(=O)n2C)n1` [compound 547], the lipophilicity (LogP) is 2.84 [a].

For the compound `CC#CCCOC(=O)Nc1cccc(CO/N=C(/c2ccccc2)c2noc(=O)n2C)n1` [compound 548], the LogP is 3.58 [a].

As to `Cn1c(/C(=N\OCc2cccc(NC(=O)OCCCC3CC3)n2)c2ccccc2)noc1=O` [compound 549], the LogP was 4.37 [a].

Consider `Cn1c(/C(=N\OCc2cccc(NC(=O)OCCCCCl)n2)c2ccccc2)noc1=O` [compound 550], for which the LogP was 3.83 [a].
